In ChEMBL document CHEMBL5375956, “Discovery of Pyrazolo[1,5-a]pyrimidine Derivative as a Novel and Selective ALKBH5 Inhibitor for the Treatment of AML” (J Med Chem, 2023):

Columns and labels:
[1] = biological target: Alpha-ketoglutarate-dependent dioxygenase FTO (Homo sapiens, UniProt Q9C0B1); experiment: Inhibition of FTO (32 to 505 residues)(unknown origin) expressed in Escherichia coli BL21(DE3) by FP assay
RNA demethylase ALKBH5 [2] = biological target: T1, RNA demethylase ALKBH5 (Homo sapiens, UniProt Q6P6C2); experiment: Inhibition of ALKBH5 (66 to 292 residues)(unknown origin) expressed in Escherichia coli BL21(DE3) using 5'-ATTGTCA(m6A)CAGCAGA-FAM-3' as substrate incubated for 30 mins by FP assay
Target sequence in this assay (Q6P6C2 whole entry, the tested form may be a part): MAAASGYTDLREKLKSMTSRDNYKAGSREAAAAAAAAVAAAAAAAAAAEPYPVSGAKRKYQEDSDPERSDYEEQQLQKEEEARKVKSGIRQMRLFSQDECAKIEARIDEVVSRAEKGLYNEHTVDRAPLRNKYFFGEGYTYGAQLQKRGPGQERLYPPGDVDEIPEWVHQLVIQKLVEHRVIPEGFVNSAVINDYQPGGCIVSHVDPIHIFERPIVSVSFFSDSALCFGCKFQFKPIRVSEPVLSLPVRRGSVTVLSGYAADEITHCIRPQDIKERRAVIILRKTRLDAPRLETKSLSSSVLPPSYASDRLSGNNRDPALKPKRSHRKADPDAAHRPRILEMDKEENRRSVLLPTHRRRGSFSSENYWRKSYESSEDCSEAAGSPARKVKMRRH

RNA demethylase ALKBH5 [3] = biological target: T1, RNA demethylase ALKBH5; experiment: Inhibition of ALKBH5 (66 to 292 residues)(unknown origin) expressed in Escherichia coli BL21(DE3) using 5'-ATTGTCA(m6A)CAGCAGA-FAM-3' as substrate incubated for 30 mins in presence of 0.2 uM of 2-OG by FP based competitive binding assay
Target sequence in this assay (Q6P6C2 whole entry, the tested form may be a part): as above

RNA demethylase ALKBH5 [4] = biological target: T1, RNA demethylase ALKBH5; experiment: Inhibition of ALKBH5 (66 to 292 residues)(unknown origin) expressed in Escherichia coli BL21(DE3) using 5'-ATTGTCA(m6A)CAGCAGA-FAM-3' as substrate incubated for 30 mins in presence of 2 uM of 2-OG by FP based competitive binding assay
Target sequence in this assay (Q6P6C2 whole entry, the tested form may be a part): as above

RNA demethylase ALKBH5 [5] = biological target: T1, RNA demethylase ALKBH5; experiment: Inhibition of ALKBH5 (66 to 292 residues)(unknown origin) expressed in Escherichia coli BL21(DE3) using 5'-ATTGTCA(m6A)CAGCAGA-FAM-3' as substrate incubated for 30 mins in presence of 20 uM of 2-OG by FP based competitive binding assay
Target sequence in this assay (Q6P6C2 whole entry, the tested form may be a part): as above

RNA demethylase ALKBH5 [6] = biological target: T1, RNA demethylase ALKBH5; experiment: Inhibition of ALKBH5 (66 to 292 residues)(unknown origin) expressed in Escherichia coli BL21(DE3) using 5'-ATTGTCA(m6A)CAGCAGA-FAM-3' as substrate incubated for 30 mins in presence of 200 uM of 2-OG by FP based competitive binding assay
Target sequence in this assay (Q6P6C2 whole entry, the tested form may be a part): as above

RNA demethylase ALKBH5 [7] = biological target: T1, RNA demethylase ALKBH5; experiment: Binding affinity to ALKBH5 (66 to 292 residues)(unknown origin) expressed in Escherichia coli BL21(DE3) assessed as increase in melting temperature incubated for 30 mins by thermal shift assay
Target sequence in this assay (Q6P6C2 2-394 limits assumed): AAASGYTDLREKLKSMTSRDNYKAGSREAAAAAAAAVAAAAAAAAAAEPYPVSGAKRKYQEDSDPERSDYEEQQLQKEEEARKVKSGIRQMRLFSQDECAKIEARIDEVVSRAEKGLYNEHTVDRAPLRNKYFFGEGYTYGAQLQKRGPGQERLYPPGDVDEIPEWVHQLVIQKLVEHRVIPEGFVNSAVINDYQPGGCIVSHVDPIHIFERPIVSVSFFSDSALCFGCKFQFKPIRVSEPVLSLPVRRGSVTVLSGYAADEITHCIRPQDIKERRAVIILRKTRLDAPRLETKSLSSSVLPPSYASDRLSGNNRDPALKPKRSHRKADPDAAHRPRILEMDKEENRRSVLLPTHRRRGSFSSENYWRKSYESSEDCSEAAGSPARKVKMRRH

Chain of Alpha-ketoglutarate-dependent dioxygenase FTO (Q9C0B1 whole entry, the tested form may be a part): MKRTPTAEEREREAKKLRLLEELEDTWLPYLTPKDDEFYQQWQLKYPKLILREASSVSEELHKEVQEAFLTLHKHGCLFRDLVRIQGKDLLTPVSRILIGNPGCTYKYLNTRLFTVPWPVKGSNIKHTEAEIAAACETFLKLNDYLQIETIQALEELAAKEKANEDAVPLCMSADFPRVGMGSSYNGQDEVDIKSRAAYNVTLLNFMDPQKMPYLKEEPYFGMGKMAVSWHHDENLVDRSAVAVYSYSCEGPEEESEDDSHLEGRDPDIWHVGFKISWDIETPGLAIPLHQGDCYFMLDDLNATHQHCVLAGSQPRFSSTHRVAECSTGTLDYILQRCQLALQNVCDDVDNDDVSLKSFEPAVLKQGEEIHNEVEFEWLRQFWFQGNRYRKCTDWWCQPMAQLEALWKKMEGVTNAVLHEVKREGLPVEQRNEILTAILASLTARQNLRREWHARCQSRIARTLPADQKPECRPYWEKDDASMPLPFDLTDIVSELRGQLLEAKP

**Q.** How did the IC50 [1] turn out when O=C(c1cnc2cc(-c3ccc(C(F)(F)F)cc3)nn2c1)c1cc([N+](=O)[O-])ccc1O was run?
**A.** > 200 µM

**Q.** And the IC50 (RNA demethylase ALKBH5 [2])?
**A.** 23.3 µM

**Q.** With O=C(c1cnc2cc(-c3ccc(Cl)cc3)nn2c1)c1cccc([N+](=O)[O-])c1O as the compound, how does the IC50 [1] read?
**A.** > 200 µM

**Q.** What about the IC50 (RNA demethylase ALKBH5 [2]) of the same compound?
**A.** 62.7 µM

**Q.** Which IC50 [1] does the source give for O=C(OCc1ccc(C(F)(F)F)cc1)c1ccc(-c2cc3ncc(C(=O)c4cc([N+](=O)[O-])ccc4O)cn3n2)cc1 here?
**A.** > 200 µM

**Q.** And the IC50 (RNA demethylase ALKBH5 [2])?
**A.** 4.64 µM

**Q.** Which results are given for O=C(c1cnc2cc(-c3ccc(Cl)cc3)nn2c1)c1ccccc1O?
**A.** IC50 [1]: > 200 µM; IC50 (RNA demethylase ALKBH5 [2]): > 200 µM

**Q.** Which results are given for O=C(OCc1ccc(Cl)cc1)c1ccc(-c2cc3ncc(C(=O)c4cc([N+](=O)[O-])ccc4O)cn3n2)cc1?
**A.** IC50 [1]: > 200 µM; IC50 (RNA demethylase ALKBH5 [2]): 10.7 µM

**Q.** Which results are given for O=C(c1cnc2cc(-c3ccc(O)cc3)nn2c1)c1cc([N+](=O)[O-])ccc1O?
**A.** IC50 [1]: 16.6 µM; IC50 (RNA demethylase ALKBH5 [2]): 46.4 µM

**Q.** What does the source list for O=C(c1cnc2cc(-c3ccc(Cl)cc3)nn2c1)c1c(O)ccc([N+](=O)[O-])c1O?
**A.** IC50 [1]: 8.39 µM; IC50 (RNA demethylase ALKBH5 [2]): 14.4 µM

**Q.** With COc1ccc([N+](=O)[O-])cc1C(=O)c1cnc2cc(-c3ccc(Cl)cc3)nn2c1 as the compound, how does the IC50 [1] read?
**A.** > 200 µM

**Q.** And the IC50 (RNA demethylase ALKBH5 [2])?
**A.** > 200 µM

**Q.** Which IC50 (RNA demethylase ALKBH5 [2]) does the source give for O=C(c1cnc2cc(-c3ccccc3)nn2c1)c1cc([N+](=O)[O-])ccc1O here?
**A.** 45.1 µM

**Q.** For Cc1ccc(COC(=O)c2ccc(-c3cc4ncc(C(=O)c5cc([N+](=O)[O-])ccc5O)cn4n3)cc2)cc1, which IC50 [1] is on record?
**A.** > 200 µM

**Q.** And the IC50 (RNA demethylase ALKBH5 [2])?
**A.** 41 µM

**Q.** With O=C(c1cnc2cc(-c3ccccc3Cl)nn2c1)c1cc([N+](=O)[O-])ccc1O as the compound, how does the IC50 [1] read?
**A.** > 200 µM

**Q.** What about the IC50 (RNA demethylase ALKBH5 [2]) of the same compound?
**A.** 102 µM

**Q.** What does the source list for O=C(OCc1ccccc1)c1ccc(-c2cc3ncc(C(=O)c4cc([N+](=O)[O-])ccc4O)cn3n2)cc1?
**A.** IC50 [1]: > 200 µM; IC50 (RNA demethylase ALKBH5 [2]): 7.88 µM

**Q.** Cc1ccc(-c2cc3ncc(C(=O)c4cc([N+](=O)[O-])ccc4O)cn3n2)cc1 was tested. Which IC50 [1] did it give?
**A.** > 200 µM

**Q.** And the IC50 (RNA demethylase ALKBH5 [2])?
**A.** > 200 µM

**Q.** How did the IC50 [1] turn out when O=C(O)c1ccc(O)c(C(=O)c2cnc3cc(-c4ccc(Cl)cc4)nn3c2)c1 was run?
**A.** > 200 µM

**Q.** And the IC50 (RNA demethylase ALKBH5 [2])?
**A.** 141 µM

**Q.** What does the source list for COC(=O)c1ccc(-c2cc3ncc(C(=O)c4cc([N+](=O)[O-])ccc4O)cn3n2)cc1?
**A.** IC50 [1]: > 200 µM; IC50 (RNA demethylase ALKBH5 [2]): 9.12 µM

**Q.** Which results are given for O=C(O)c1ccc(-c2cc3ncc(C(=O)c4cc([N+](=O)[O-])ccc4O)cn3n2)cc1?
**A.** IC50 [1]: 5.98 µM; IC50 (RNA demethylase ALKBH5 [2]): 56.5 µM

**Q.** O=C(c1cnc2cc(-c3cccc(Cl)c3)nn2c1)c1cc([N+](=O)[O-])ccc1O was tested. Which IC50 [1] did it give?
**A.** > 200 µM

**Q.** And the IC50 (RNA demethylase ALKBH5 [2])?
**A.** 24.6 µM

**Q.** What does the source list for O=C(O)c1ccnc(C(=O)NS(=O)(=O)c2ccccc2)c1?
**A.** IC50 (RNA demethylase ALKBH5 [3]): 87.6 µM; IC50 (RNA demethylase ALKBH5 [4]): 135 µM; IC50 (RNA demethylase ALKBH5 [5]): 211 µM; IC50 (RNA demethylase ALKBH5 [2]): 67.7 µM; IC50 (RNA demethylase ALKBH5 [6]): 269 µM

**Q.** O=C(c1cnc2cc(-c3ccc(Cl)cc3)nn2c1)c1cc(C(F)(F)F)ccc1O was tested. Which IC50 [1] did it give?
**A.** > 200 µM

**Q.** What about the IC50 (RNA demethylase ALKBH5 [2]) of the same compound?
**A.** > 200 µM

**Q.** What does the source list for O=C(c1cnc2cc(-c3ccc(Cl)cc3)nn2c1)c1cc([N+](=O)[O-])ccc1O?
**A.** IC50 [1]: > 200 µM; IC50 (RNA demethylase ALKBH5 [2]): 15.6 µM; ΔTm (RNA demethylase ALKBH5 [7]): > 1 °C
